Assay [1] concerns tetrabenazine-induced ptosis in mice. Kind of assay: Prevention of tetrabenazine-induced ptosis in mice (antidepressant activity). In kind it is in vivo. As to conditions: Mus musculus, po, read-out: ED50 (antidepressant activity). The text has this: The test method and results are described below.
PREVENTION OF TETRABENAZINE-INDUCED PTOSIS IN MICE
Tetrabenazine (TBZ) induces behavioral depression with concomitant ptosis in mice similar to reserpine. Antidepressant compounds, both monoamineoxidase inhibitors and tricyclics, are known to prevent or antagonize these effects and the degree of antagonism correlates with clinical efficacy. The prevention of TBZ-induced ptosis in mice is used as a preliminary screen for possible antidepressant activity. The method used in this invention is as follows:
Male mice weighing 20 to 30 grams are used in test groups of five subjects. All compounds are dissolved or suspended with a suitable surfactant in distilled water and administered in volumes of 10 ml/kg of body weight. TBZ solution is made from the methanesulfonate salt and the concentration is adjusted to enable administration of 60 mg/kg of base by intraperitoneal (i.p.) injection.
The pretreatment time is measured from the time of dosing to observation. Therefore, when a 30-minute pretreat is utilized, drug and TBZ are given simultaneously. A control group received solvent and TBZ at intervals identical to drug group. For a primary screen, the drug is administered i.p. and a group size of five is utilized. Eight animals/group are used for a dose range.
The total score for each group of five in a primary screen will, therefore, be from 0 to 20 and these scores are used as indications of drug activity.
The vehicle control group score is used as a determinant of the validity of each test. […] The calculation of percent inhibition of ptosis is: [formula]

For assay [2], the system named is 2-phenyl-1,4-benzoquinone-induced writhing in mice. Nature of the assay: 2-phenyl-1,4-benzoquinone-induced writhing (PQW) test in mice (analgesia). It counts as in vivo. As to conditions: s.c. The text has this:
Compounds I of the present invention are also useful as analgesic agents due to their ability to alleviate pain in mammals. […] Exptl. Biol. Med., 95, 729(1957)] and in modified Haffner's analgesia.

In assay [3] the test system is sensitivity of mice to pressure stress (artery clip on tail). Kind of assay: Modified Haffner's analgesia (artery clip on tail). It counts as in vivo, mice (Charles River. Particulars: Mus musculus, sc; at peak time of drug activity; male CD-1 mice. The text has this:
The latter assay is used to evaluate analgesic activity by measuring drug-induced changes in the sensitivity of mice to pressure stress by placing an artery clip (21/2 inches long) on their tail. The procedure used is a modification of the test developed by Haffner, Dtsch. Med. Wschr. 55, 731 (1929), and it is described below:
Male mice (Charles River, CD-1) from 18-30 grams are used for the test. An artery clip is applied to the root of the tail of a mouse (approximately 1/2 inch from the body) to induce pain. The animals quickly responds to this noxious stimuli by biting the clip or the location of the clip. This reaction time, the interval between stimulus onset and response, is recorded on 1/10 second increments by a stop watch.
For a time response, the screening dose (25 mg/kg) is administered subcutaneously (10 ml/kg) to the animal receiving food and water ad libitum before testing. […]
The cut-off time (CO) is determined by taking the (x) average +3 standard (SD) deviation of the combined response latencies of the control mice in all time periods.
Any reaction time, in subsequent drug tests, which is greater than the CO (for the same time period) therefore exceeds 99% of normal Gaussian distribution and is called "positive response" indicative of analgesic activity. […] The ED50 is determined at the peak time of drug activity. […] ED50 's are calculated using computer analysis.

Results on four compounds are retold here after US4806554A, “Pyrazol and indazolpyridinamines” (Hoechst-Roussel Pharmaceuticals, Inc., priority 1988, dated 1989).

Where two headings read alike, the source gives them in different places.

What is called ED50 is the dose at which the effect has come halfway, by size or by number of responders.

In the case of `CNCCCN1c2ccccc2CCc2ccccc21` [Desipramine, reference compound], the ED50 in assay [1] is 2.3 mg/kg.
Consider `O=C(O)/C=C\C(=O)O.c1ccc2c(c1)cnn2Nc1ccncc1` [N-(4-Pyridinyl)-1H-indazol-1-amine maleate], for which the median effective dose (ED50) was determined as 2.7 mg/kg in assay [1] (TBZ 60 mg/kg i.p., male mice) and 10.4 mg/kg in assay [3]. Besides, in assay [2] (at 0.7 mg/kg), the “PQW (% Inhibition of writhing)” value is reported as 50%.
With `CCCN(c1ccncc1)n1ncc2ccccc21.O=C(O)/C=C\C(=O)O` [N-(Propyl)-N-(4-pyridinyl)-1H-indazol-1-amine maleate], the ED50 in assay [1] (TBZ 60 mg/kg i.p., male mice) was 8.5 mg/kg. Moreover, the “PQW (% Inhibition of writhing)” value in assay [2] (at 20 mg/kg) is reported as 62%.
In the case of `CC(C)=CCN1CCC2(C)c3cc(O)ccc3CC1C2C` (centres unmarked) [Pentazocin, reference compound], in assay [2] (at 1.3 mg/kg), the “PQW (% Inhibition of writhing)” value is 50%. The same compound had an ED50 in assay [3] of 3.9 mg/kg.
